{"source": "ChEMBL document CHEMBL1127426", "about": "“Androgen receptor affinity of 5'-acyl furanosteroids” (1994)"}
{"species": "Rattus norvegicus", "assay": "Effective dose required for the compound to inhibit testosterone propionate-stimulated prostate weight gain by 50% […].", "format": "functional", "conditions": "Prostate gland", "units": {"ED50": "mg/kg"}}
{"smiles": "COc1ccc(C(=O)c2cc3c(o2)C[C@@H]2CCC4C5CC[C@H](O)[C@@]5(C)CCC4[C@@]2(C)C3)cc1", "note": "(stereo partly specified)", "ED50": "> 100"}
{"molecular_target": "T1, Androgen receptor (Rattus norvegicus) (UniProt P15207)", "T1 sequence (whole entry)": "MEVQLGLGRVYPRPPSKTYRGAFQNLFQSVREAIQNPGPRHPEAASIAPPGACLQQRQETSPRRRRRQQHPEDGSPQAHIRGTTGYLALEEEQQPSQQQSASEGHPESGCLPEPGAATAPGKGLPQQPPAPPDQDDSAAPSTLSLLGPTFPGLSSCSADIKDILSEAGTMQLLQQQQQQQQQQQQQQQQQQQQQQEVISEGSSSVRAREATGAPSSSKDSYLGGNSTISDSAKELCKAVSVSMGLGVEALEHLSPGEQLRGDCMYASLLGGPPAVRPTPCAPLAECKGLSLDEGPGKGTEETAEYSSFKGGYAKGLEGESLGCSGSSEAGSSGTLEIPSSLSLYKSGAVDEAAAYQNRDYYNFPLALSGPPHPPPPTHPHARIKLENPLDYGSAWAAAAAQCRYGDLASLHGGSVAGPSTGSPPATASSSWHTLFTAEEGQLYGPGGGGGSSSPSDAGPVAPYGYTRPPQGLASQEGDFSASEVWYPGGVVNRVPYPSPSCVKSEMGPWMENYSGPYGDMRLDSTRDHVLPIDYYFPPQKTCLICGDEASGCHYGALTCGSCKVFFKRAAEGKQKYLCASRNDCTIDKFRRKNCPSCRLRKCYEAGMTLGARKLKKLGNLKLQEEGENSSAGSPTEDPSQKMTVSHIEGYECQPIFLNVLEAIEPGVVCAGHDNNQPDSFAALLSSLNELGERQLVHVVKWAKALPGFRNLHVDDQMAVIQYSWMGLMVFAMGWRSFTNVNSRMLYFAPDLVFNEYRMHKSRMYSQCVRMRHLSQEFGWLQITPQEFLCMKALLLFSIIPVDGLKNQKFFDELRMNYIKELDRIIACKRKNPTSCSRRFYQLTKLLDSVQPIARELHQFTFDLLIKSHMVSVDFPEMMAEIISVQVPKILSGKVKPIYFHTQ", "assay": "Effective dose required to inhibit testosterone propionate-stimulated prostate weight gain by 50% […].", "format": "tissue-based", "conditions": "Prostate gland", "units": {"ED50": "mg/kg"}}
{"smiles": "C[C@]12CCC3C(CC[C@H]4Cc5oc(C=O)cc5C[C@]34C)C1CC[C@@H]2O", "note": "(stereo partly specified)", "ED50": "> 100"}
{"smiles": "C[C@]12CCC3C(CC[C@H]4Cc5occc5C[C@]34C)C1CC[C@@H]2O", "note": "(stereo partly specified)", "ED50": "> 100"}
{"smiles": "C#C[C@]1(O)CCC2C3CC[C@H]4Cc5oc(C(C)=O)cc5C[C@@H]4C3CC[C@@]21C", "note": "(stereo partly specified)", "ED50": 100}
{"smiles": "CC1(C(=O)c2cc3c(o2)C[C@@H]2CCC4C5CC[C@H](O)[C@@]5(C)CCC4[C@@]2(C)C3)CC1", "note": "(stereo partly specified)", "ED50": "> 100"}
{"smiles": "CCCC(=O)c1cc2c(o1)C[C@@H]1CCC3C4CC[C@H](O)[C@@]4(C)CCC3[C@@]1(C)C2", "note": "(stereo partly specified)", "ED50": "> 75"}
{"smiles": "C#C[C@]1(O)CCC2C3CC[C@H]4Cc5oc(C(N)=O)cc5C[C@]4(C)C3CC[C@@]21C", "note": "(stereo partly specified)", "ED50": 56}
{"smiles": "C#C[C@]1(O)CCC2C3CC[C@H]4Cc5oc(C(=O)OC)cc5C[C@]4(C)C3CC[C@@]21C", "note": "(stereo partly specified)", "ED50": "> 50"}
{"smiles": "C#C[C@]1(O)CCC2C3CC[C@H]4Cc5oc(C(=O)O)cc5C[C@]4(C)C3CC[C@@]21C", "note": "(stereo partly specified)", "ED50": "> 100"}
{"smiles": "CC(C)(C)C(=O)c1cc2c(o1)C[C@@H]1CCC3C4CC[C@H](O)[C@@]4(C)CCC3[C@@]1(C)C2", "note": "(stereo partly specified)", "ED50": "> 100"}
{"smiles": "C#C[C@]1(O)CCC2C3CC[C@H]4Cc5oc(C(C)=O)cc5C[C@]4(C)C3CC[C@@]21C", "note": "(stereo partly specified)", "ED50": "> 100"}
{"smiles": "C[C@]12CCC3C(CC[C@H]4Cc5oc(C(=O)C6CC6)cc5C[C@]34C)C1CC[C@@H]2O", "note": "(stereo partly specified)", "ED50": 100}
{"smiles": "COC(=O)c1cc2c(o1)C[C@@H]1CCC3C4CC[C@H](O)[C@@]4(C)CCC3[C@@]1(C)C2", "note": "(stereo partly specified)", "ED50": "> 100"}
{"smiles": "C[C@]12CCC3C(CC[C@H]4Cc5oc(C(=O)c6ccccc6)cc5C[C@]34C)C1CC[C@@H]2O", "note": "(stereo partly specified)", "ED50": "> 100"}
{"smiles": "C[C@]12CCC3C(CC[C@H]4Cc5oc(C(=O)O)cc5C[C@]34C)C1CC[C@@H]2O", "note": "(stereo partly specified)", "ED50": "> 100"}
{"smiles": "C#C[C@]1(O)CCC2C3CC[C@H]4Cc5oc(C(=O)CC)cc5C[C@]4(C)C3CC[C@@]21C", "note": "(stereo partly specified)", "ED50": 30}
{"smiles": "CC(=O)c1cc2cc3c(cc2o1)CC[C@@H]1[C@@H]3CC[C@]2(C)[C@@H](O)CC[C@@H]12", "ED50": 100}
{"smiles": "C#C[C@]1(O)CCC2C3CC[C@H]4Cc5oc(C=O)cc5C[C@]4(C)C3CC[C@@]21C", "note": "(stereo partly specified)", "ED50": 100}
{"smiles": "CCC(=O)c1cc2c(o1)C[C@@H]1CCC3C4CC[C@H](O)[C@@]4(C)CCC3[C@@]1(C)C2", "note": "(stereo partly specified)", "ED50": 33}
{"smiles": "C[C@]12CCC3C(CC[C@H]4Cc5oc(C=O)cc5C[C@H]34)C1CC[C@@H]2O", "note": "(stereo partly specified)", "ED50": "> 100"}
{"molecular_target": "T1, Androgen receptor (Rattus norvegicus)", "conditions": "Prostate gland; filed as agonist"}
{"smiles": "C#C[C@]1(O)CCC2C3CC[C@H]4Cc5oc(C(=O)C(Cl)(Cl)Cl)cc5C[C@]4(C)C3CC[C@@]21C", "note": "(stereo partly specified)", "ED50": "Agonist"}
{"smiles": "CC(=O)c1cc2c(o1)C[C@@H]1CCC3C4CC[C@H](O)[C@@]4(C)CCC3[C@@]1(C)C2", "note": "(stereo partly specified)", "ED50": "Agonist"}
{"smiles": "C#C[C@]1(O)CCC2C3CC[C@H]4Cc5oc(C(=O)C(C)C)cc5C[C@]4(C)C3CC[C@@]21C", "note": "(stereo partly specified)", "ED50": "Agonist"}
{"smiles": "C#C[C@]1(O)CCC2C3CC[C@H]4Cc5oc(C(=O)C6CC6)cc5C[C@]4(C)C3CC[C@@]21C", "note": "(stereo partly specified)", "ED50": "Agonist"}
{"smiles": "CC(C)C(=O)c1cc2c(o1)C[C@@H]1CCC3C4CC[C@H](O)[C@@]4(C)CCC3[C@@]1(C)C2", "note": "(stereo partly specified)", "ED50": "Agonist"}
{"smiles": "C#C[C@]1(O)CCC2C3CC[C@H]4Cc5oc(C(=O)C(F)(F)F)cc5C[C@]4(C)C3CC[C@@]21C", "note": "(stereo partly specified)", "ED50": "Agonist"}
{"smiles": "CC(=O)c1cc2c(o1)C[C@@H]1CCC3C(CC[C@@]4(C)C3CC[C@@H]4O)[C@H]1C2", "note": "(stereo partly specified)", "ED50": "Agonist"}
{"smiles": "C=C[C@]1(O)CCC2C3CC[C@H]4Cc5oc(C(C)=O)cc5C[C@]4(C)C3CC[C@@]21C", "note": "(stereo partly specified)", "ED50": "Agonist"}
{"smiles": "C[C@]12CCC3C(CC[C@H]4Cc5oc(C(=O)C6CCC6)cc5C[C@]34C)C1CC[C@@H]2O", "note": "(stereo partly specified)", "ED50": "Agonist"}
{"smiles": "CC[C@]1(O)CCC2C3CC[C@H]4Cc5oc(C(C)=O)cc5C[C@]4(C)C3CC[C@@]21C", "note": "(stereo partly specified)", "ED50": "Agonist"}
{"smiles": "C[C@]12CCC3C(CC[C@H]4Cc5oc(C(=O)C(F)(F)F)cc5C[C@]34C)C1CC[C@@H]2O", "note": "(stereo partly specified)", "ED50": "Agonist"}
